{
  "source": "patent EP1343508B1",
  "about": "“USE OF AN OESTROGEN IN THE MANUFACTURE OF A COMPOSITION CONTAINING OESTROGEN FOR THE TREATMENT OF ATROPHIC VAGINITIS” (Novo Nordisk Femcare AG, priority 2000, dated 2002)",
  "key": {"vaginal mucosal cells": {"tested_on": "vaginal mucosal cells", "experiment": "Maturation value of vaginal mucosal cells, Example 2", "assay_type": "in vivo, postmenopausal women", "procedure": "Maturation values of vaginal mucosal cells were assessed as an indicator of changes in the condition of the vaginal mucosa in response to treatment.\nAfter the screening visit, patients received no study treatment during the 4-week run-in period prior to the baseline visit. […] The vaginal tablets were identical in appearance. Patients inserted 1 tablet intravaginally, once daily for the initial 2 weeks of the study and then twice per week (Sunday and Thursday) for the remaining 10 weeks. Patients were instructed to use their medication at a consistent time each day, preferably in the morning.\nUpon presentation to the clinic for each visit, a vaginal cytology specimen was obtained. Patients then inserted the tablets. […] The blood samples obtained at 30 minutes before insertion, and at 6, 12, and 24 hours after insertion were also used to determine the FSH concentration via immunoradiometric assay. […]"}, "[1]": {"tested_on": "superficial vaginal cells", "experiment": "Vaginal cytology, percentage of superficial cells, Example 3", "assay_type": "in vivo, postmenopausal women", "procedure": "Efficacy was measured with composite scores of vaginal symptoms (dryness, soreness, and irritation) and vaginal health (secretions, epithelial integrity, surface thickness, and pH). Vaginal and urethral cytology analyses were also performed, and the vaginal maturation value was determined. Safety assessments included endometrial biopsies.\nAll vaginal tablets were identical in appearance. Patients inserted 1 tablet daily for 14 days. Thereafter, patients inserted 1 tablet twice per week (Sunday and Thursday) for the remainder of the trial. Patients were to insert the tablets at the same time each day (preferably at bedtime). Patients were evaluated for efficacy and safety at Week - 4 (screening), Week 0 (baseline), and Weeks 2, 7, and 12.\nVaginal and urethral cell samples were harvested and analyzed by independent cytologists to determine the percentages of parabasal, intermediate, and superficial cells. Maturation values were calculated according to the following equation: maturation value = 1.0 × [superficial cells, %] + 0.5 × [intermediate cells, %] [formula] Endometrial biopsies were performed at the end of the study in patients with intact uteri. The number of patients with abnormal biopsies was compared between treatment groups."}, "[2]": {"tested_on": "postmenopausal women with atrophic vaginitis", "experiment": "Vaginal health composite score (investigator rating), Example 3", "assay_type": "in vivo", "conditions": "each treatment group (25 or 10 µg E2); Week 0 (baseline); scale 0-3", "procedure": "Efficacy was measured with composite scores of vaginal symptoms (dryness, soreness, and irritation) and vaginal health (secretions, epithelial integrity, surface thickness, and pH). Vaginal and urethral cytology analyses were also performed, and the vaginal maturation value was determined. Safety assessments included endometrial biopsies. […] All vaginal tablets were identical in appearance. Patients inserted 1 tablet daily for 14 days. Thereafter, patients inserted 1 tablet twice per week (Sunday and Thursday) for the remainder of the trial. Patients were to insert the tablets at the same time each day (preferably at bedtime). Patients were evaluated for efficacy and safety at Week - 4 (screening), Week 0 (baseline), and Weeks 2, 7, and 12. […] Differences within and between treatment groups were analyzed using an analysis of variance (ANOVA). […] Efficacy was measured with composite scores of vaginal symptoms (dryness, soreness, and irritation) and vaginal health (secretions, epithelial integrity, surface thickness, and pH). Vaginal and urethral cytology analyses were also performed, and the vaginal maturation value was determined. […] Patients were evaluated for efficacy and safety at Week - 4 (screening), Week 0 (baseline), and Weeks 2, 7, and 12. […] Differences within and between treatment groups were analyzed using an analysis of variance (ANOVA)."}},
  "note": "Where “and” joins values, the source holds several entries; their conditions need not be identical. Equal values may be shown once. Marks after values point to notes of the source that are not given here.",
  "data": [
    {"smiles": "C[C@]12CC[C@@H]3c4ccc(O)cc4CC[C@H]3[C@@H]1CC[C@@H]2O", "note": "[E2, 17β-estradiol]", "values": [
      {"measurement": "maturation value, Mean ± SD", "setting": "vaginal mucosal cells; 10 µg E2, Week 0 (baseline)", "result": "51.0 and 51.0 ± 6.2"},
      {"measurement": "maturation value, Mean change ± SD from baseline", "setting": "vaginal mucosal cells; 10 µg E2, Week 12", "result": "11.2 ± 17.8^b"},
      {"measurement": "maturation value, Mean ± SD", "setting": "vaginal mucosal cells; 10 µg E2, Week 12", "result": "62.2 ± 15.7"},
      {"measurement": "patients with increases in maturation values from baseline", "setting": "vaginal mucosal cells; 10 µg E2, Week 12", "result": 14, "unit": "patients"},
      {"measurement": "percentage of patients with increases in maturation values from baseline", "setting": "vaginal mucosal cells; 10 µg E2, Week 12", "result": 64, "unit": "%"},
      {"measurement": "maturation value, Mean ± SD", "setting": "vaginal mucosal cells; 25 µg E2, Week 0 (baseline)", "result": "52.4 and 53.4 and 52.4 ± 7.1"},
      {"measurement": "maturation value, Mean change ± SD from baseline", "setting": "vaginal mucosal cells; 25 µg E2, Week 12", "result": "7.0 ± 8.7^b"},
      {"measurement": "maturation value, Mean ± SD", "setting": "vaginal mucosal cells; 25 µg E2, Week 12", "result": "58.4 ± 7.5"},
      {"measurement": "patients with increases in maturation values from baseline", "setting": "vaginal mucosal cells; 25 µg E2, Week 12", "result": 13, "unit": "patients"},
      {"measurement": "percentage of patients with increases in maturation values from baseline", "setting": "vaginal mucosal cells; 25 µg E2, Week 12", "result": 68, "unit": "%"},
      {"measurement": "percentage of superficial vaginal cells, Mean", "setting": "[1]; 10 µg E2, Week 0", "result": 3.1, "unit": "%"},
      {"measurement": "percentage of superficial vaginal cells, Mean", "setting": "[1]; 10 µg E2, Week 2", "result": 28.3, "unit": "%"},
      {"measurement": "percentage of superficial vaginal cells, mean Change from baseline", "setting": "[1]; 10 µg E2, Week 2", "result": "25.0^a %"},
      {"measurement": "percentage of superficial vaginal cells, mean Change from baseline", "setting": "[1]; 10 µg E2, Week 7", "result": 17.1, "unit": "%"},
      {"measurement": "percentage of superficial vaginal cells, mean Change from baseline", "setting": "[1]; 10 µg E2, Week 12", "result": "16.9^d %"},
      {"measurement": "percentage of superficial vaginal cells, Mean", "setting": "[1]; 25 µg E2, Week 0", "result": 4.0, "unit": "%"},
      {"measurement": "percentage of superficial vaginal cells, Mean", "setting": "[1]; 25 µg E2, Week 2", "result": 34.2, "unit": "%"},
      {"measurement": "percentage of superficial vaginal cells, mean Change from baseline", "setting": "[1]; 25 µg E2, Week 2", "result": "30.7^a %"},
      {"measurement": "percentage of superficial vaginal cells, Mean", "setting": "[1]; 25 µg E2, Week 7", "result": 28.2, "unit": "%"},
      {"measurement": "percentage of superficial vaginal cells, mean Change from baseline", "setting": "[1]; 25 µg E2, Week 7", "result": "23.9^b,c %"},
      {"measurement": "percentage of superficial vaginal cells, mean Change from baseline", "setting": "[1]; 25 µg E2, Week 12", "result": 15.4, "unit": "%"},
      {"measurement": "vaginal health composite score", "setting": "[2]", "result": "approximately 1.7"}
    ]}
  ]
}
